The assay has as its target GLP-1 Receptor (Homo sapiens, UniProt P43220). The assay can be described thus: GLP-1R agonist cAMP stimulation assay (HEK293/GLP1R/CRE-LUC cells, cAMP dynamic 2 Kit). It counts as cell-based. The following applies: HEK293/CRE-Luc cell line stably expressing the GLP-1 Receptor, 30 min at 37° C. The gist of the method: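 HEK293 cells stably expressing human GLP-1R with CRE-luciferase, 1000 cells/well in DPBS with 0.5 mM IBMX and 0.1% BSA, treated with compound in 1/2-log serial dilution for 30 min at 37 °C. cAMP then detected by HTRF (cAMP-d2 plus anti-cAMP cryptate), 1 h at room temperature in the dark.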

Sequence of GLP-1 Receptor (P43220 24-463, species assumed): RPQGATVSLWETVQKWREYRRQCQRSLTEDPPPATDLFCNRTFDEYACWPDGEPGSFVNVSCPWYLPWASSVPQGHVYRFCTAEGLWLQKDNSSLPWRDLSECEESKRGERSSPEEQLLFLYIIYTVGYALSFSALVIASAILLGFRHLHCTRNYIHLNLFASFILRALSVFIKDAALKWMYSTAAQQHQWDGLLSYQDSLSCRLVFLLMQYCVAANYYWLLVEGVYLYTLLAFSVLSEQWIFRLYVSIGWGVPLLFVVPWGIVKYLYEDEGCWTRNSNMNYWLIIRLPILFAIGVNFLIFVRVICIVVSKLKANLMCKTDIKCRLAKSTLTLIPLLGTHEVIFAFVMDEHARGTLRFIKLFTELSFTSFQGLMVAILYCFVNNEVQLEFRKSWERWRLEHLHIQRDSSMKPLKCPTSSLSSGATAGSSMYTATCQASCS

On to `Fc1cc(Cl)ccc1COc1nccc(C2CCN(Cc3nc4cc(-c5nnc(C(F)(F)F)[nH]5)ncc4n3C[C@@H]3CCO3)CC2)n1` [Compound 505a, 2-[(4-chloro-2-fluorophenyl)methoxy]-4-{1-[(3-{[(2S)-oxetan-2-yl]methyl}-6-[5-(trifluoromethyl)-4H-1,2,4-triazol-3-yl]-3H-imidazo[4,5-c]pyridin-2-yl)methyl]piperidin-4-yl}pyrimidine], for which the EC50 was found to be 0.045 nM.
The result for `COCCn1c(CN2CCC(c3cccc4c3OC(C)(c3ccc(Cl)cc3F)O4)CC2)nc2cc(-c3nnc(C(F)(F)F)[nH]3)cnc21` (stereo not shown) [Compound 402, 4-[2-(4-chloro-2-fluorophenyl)-2-methyl-2H-1,3-benzodioxol-4-yl]-1-{[3-(2-methoxyethyl)-6-[5-(trifluoromethyl)-4H-1,2,4-triazol-3-yl]-3H-imidazo[4,5-b]pyridin-2-yl]methyl}piperidine] reads 0.75 nM; that for `C[C@]1(c2ccc(Cl)cc2F)Oc2cccc(C3CCN(Cc4nc5cc(-c6nnc(C(F)F)[nH]6)ncc5n4C[C@@H]4CCO4)CC3)c2O1` [Compound 360a, 4-[(2S)-2-(4-chloro-2-fluorophenyl)-2-methyl-2H-1,3-benzodioxol-4-yl]-1-({6-[5-(difluoromethyl)-4H-1,2,4-triazol-3-yl]-3-{[(2S)-oxetan-2-yl]methyl}-3H-imidazo[4,5-c]pyridin-2-yl}methyl)piperidine], 0.0092 nM.
The result for `CC1(c2ccc(Cl)cn2)Oc2cccc(C3CCN(Cc4nc5cc(-c6nnn[nH]6)ncc5n4C[C@@H]4CCO4)CC3)c2O1` (stereo partly drawn) [Compound 450a, 5-chloro-2-(2-methyl-4-{1-[(3-{[(2S)-oxetan-2-yl]methyl}-6-(1H-1,2,3,4-tetrazol-5-yl)-3H-imidazo[4,5-c]pyridin-2-yl)methyl]piperidin-4-yl}-2H-1,3-benzodioxol-2-yl)pyridine] reads 0.062 nM.
With `CC1(c2ccc(Cl)cc2F)Oc2cccc(C3CCN(Cc4nc5cc(-c6nnn[nH]6)c(F)cc5n4C[C@@H]4CCO4)CC3)c2O1` (stereo partly drawn) [Compound 223a, 2-({4-[2-(4-chloro-2-fluorophenyl)-2-methyl-2H-1,3-benzodioxol-4-yl]piperidin-1-yl}methyl)-6-fluoro-1-{[(2S)-oxetan-2-yl]methyl}-5-(1H-1,2,3,4-tetrazol-5-yl)-1H-1,3-benzodiazole] the figure was 0.12 nM; with `CC1(c2ccc(C#N)cc2Cl)Oc2cccc(C3CCN(Cc4nc5cc(-c6nnc(C(F)(F)F)[nH]6)ccc5n4C[C@@H]4CCO4)CC3)c2O1` (stereo partly drawn) [Compound 353a, 3-chloro-4-(2-methyl-4-{1-[(1-{[(2S)-oxetan-2-yl]methyl}-5-[5-(trifluoromethyl)-4H-1,2,4-triazol-3-yl]-1H-1,3-benzodiazol-2-yl)methyl]piperidin-4-yl}-2H-1,3-benzodioxol-2-yl)benzonitrile], 0.026 nM; with `O=C(Nc1ccc2c(c1)nc(CN1CCC(c3cccc(OCc4ccc(Cl)cc4F)n3)CC1)n2C[C@@H]1CCO1)C1CCCOC1` (stereo partly drawn) [Compound 154a, N-{2-[(4-{6-[(4-chloro-2-fluorophenyl)methoxy]pyridin-2-yl}piperidin-1-yl)methyl]-1-{[(2S)-oxetan-2-yl]methyl}-1H-1,3-benzodiazol-5-yl}oxane-3-carboxamide], 0.13 nM.
For the compound `CC1OC2(C(=O)Nc3ccc4c(c3)nc(CN3CCC(c5cccc(OCc6ccc(Cl)cc6F)n5)CC3)n4C[C@@H]3CCO3)CCC1CC2` (stereo partly drawn) [Compound 198a, N-{2-[(4-{6-[(4-chloro-2-fluorophenyl)methoxy]pyridin-2-yl}piperidin-1-yl)methyl]-1-{[(2S)-oxetan-2-yl]methyl}-1H-1,3-benzodiazol-5-yl}-3-methyl-2-oxabicyclo[2.2.2]octane-1-carboxamide], a half-maximal response (EC50) required 12 nM.
As for `N#Cc1ccc(COc2nccc(C3CCN(Cc4nc5cc(-c6nnc(C(F)(F)F)[nH]6)ncc5n4C[C@@H]4CCO4)CC3)n2)c(F)c1` [Compound 507a, 3-fluoro-4-{[(4-{1-[(3-{[(2S)-oxetan-2-yl]methyl}-6-[5-(trifluoromethyl)-4H-1,2,4-triazol-3-yl]-3H-imidazo[4,5-c]pyridin-2-yl)methyl]piperidin-4-yl}pyrimidin-2-yl)oxy]methyl}benzonitrile], the EC50 is 0.068 nM.
With `O=C(O)c1ccc2c(c1)nc(CN1CCC(c3cccc(OCc4ccc(Cl)cc4F)n3)CC1)n2C[C@@H]1CCO1` [Compound 213a, 2-[(4-{6-[(4-chloro-2-fluorophenyl)methoxy]pyridin-2-yl}piperidin-1-yl)methyl]-1-{[(2S)-oxetan-2-yl]methyl}-1H-1,3-benzodiazole-5-carboxylic acid] the figure was 0.83 nM; with `Fc1cc(Cl)ccc1COc1cccc(C2CCN(Cc3nc4cc(-c5nnc(C(F)(F)F)[nH]5)cnc4n3C[C@@H]3CCO3)CC2F)n1` (stereo partly drawn) [Compound 500a, 2-[(4-chloro-2-fluorophenyl)methoxy]-6-[(3,4-trans)-3-fluoro-1-[(3-{[(2S)-oxetan-2-yl]methyl}-6-[5-(trifluoromethyl)-4H-1,2,4-triazol-3-yl]-3H-imidazo[4,5-b]pyridin-2-yl)methyl]piperidin-4-yl]pyridine], 0.078 nM; with `CC1(c2ccc(Cl)cc2F)Oc2cccc(C3CCN(Cc4nc5cc(-c6nnc(C(F)(F)F)[nH]6)ccc5n4C[C@@H]4CCO4)CC3)c2O1` (single isomer, unassigned) [Compound 229b], 8.9 nM.
With `CC1(c2ccc(Cl)cc2F)Oc2cccc(C3CCN(Cc4nc5cc(-c6cn(CCO)nn6)ccc5n4C[C@@H]4CCO4)CC3)c2O1` (stereo partly drawn) [Compound 228a, 2-{4-[2-({4-[2-(4-chloro-2-fluorophenyl)-2-methyl-2H-1,3-benzodioxol-4-yl]piperidin-1-yl}methyl)-1-{[(2S)-oxetan-2-yl]methyl}-1H-1,3-benzodiazol-5-yl]-1H-1,2,3-triazol-1-yl}ethan-1-ol] the figure was 0.19 nM.
The result for `O=C(Nc1ccc2c(c1)nc(CN1CCC(c3cccc(OCc4ccc(Cl)cc4F)n3)CC1)n2C[C@@H]1CCO1)C1CCCCO1` (stereo partly drawn) [Compound 155a, N-{2-[(4-{6-[(4-chloro-2-fluorophenyl)methoxy]pyridin-2-yl}piperidin-1-yl)methyl]-1-{[(2S)-oxetan-2-yl]methyl}-1H-1,3-benzodiazol-5-yl}oxane-2-carboxamide] reads 1 nM; that for `Fc1cc(Cl)ccc1COc1cc(C2CCN(Cc3nc4cc(-c5nnc(C(F)(F)F)[nH]5)ncc4n3C[C@@H]3CCO3)CC2F)ccc1F` (stereo partly drawn) [Compound 478a, (3,4-trans)-4-{3-[(4-chloro-2-fluorophenyl)methoxy]-4-fluorophenyl}-3-fluoro-1-[(3-{[(2S)-oxetan-2-yl]methyl}-6-[5-(trifluoromethyl)-4H-1,2,4-triazol-3-yl]-3H-imidazo[4,5-c]pyridin-2-yl)methyl]piperidine], 0.1 nM.
The compound `Cc1nnc(-c2ccc3c(c2)nc(CN2CCC(c4cccc5c4OC(C)(c4ccc(Cl)cn4)O5)CC2)n3C[C@@H]2CCO2)[nH]1` (stereo partly drawn) [Compound 271a, 2-({4-[2-(5-chloropyridin-2-yl)-2-methyl-2H-1,3-benzodioxol-4-yl]piperidin-1-yl}methyl)-5-(5-methyl-4H-1,2,4-triazol-3-yl)-1-{[(2S)-oxetan-2-yl]methyl}-1H-1,3-benzodiazole] gave an EC50 of 0.34 nM. This EC50 is about 3.4-fold higher than that of the compound before.

The values above are taken from patent US20230391760A1, “HETEROCYCLIC GLP-1 AGONISTS” (Gasherbrum Bio, Inc., priority 2020, published 2023).
